System: COLO205 colon cancer cells
Assay: Apoptotic DNA laddering, DNA gel separation analysis
Assay type: cell-based
Conditions: 18 hrs, ceramide 25 μM
Description: FIG. 8 represents a micrograph of DNA gel separation analysis of COLO205 cells incubated with C6 ceramide-loaded mitochondriotropic liposomes according to the invention for 18 hrs, followed by extraction of their DNA. The concentration of ceramide in all samples was 25 μM. Lane A—DNA marker; lane B—untreated control; lane C—ceramide-loaded plain liposomes; lane D—ceramide loaded STPP liposomes according to the invention; lane E—free ceramide. Black arrows indicate the apoptotic DNA ladder. Total amount of DNA was identical in all lanes; and
FIG. 8 represents a micrograph of DNA gel separation analysis of cells of the colon cancer cell line COLO205 incubated with C6 ceramide-loaded mitochondriotropic liposomes according to the invention for 18 hrs, followed by extraction of their DNA. The concentration of ceramide in all samples was 25 μM. Lane A—DNA marker; lane B—untreated control; lane C—ceramide-loaded plain liposomes; lane D—ceramide loaded STPP liposomes according to the invention; lane E—free ceramide. Black arrows indicate the apoptotic DNA ladder. The total amount of DNA was identical in all lanes.

CCCCCCCCCCCCC/C=C/[C@@H](O)[C@H](CO)NC(=O)CCCCC [free ceramide, C6 ceramide]
DNA laddering typical of apoptosis: nor cells treated with free ceramide (Lane E, FIG. 8) showed the DNA laddering typical of apoptosis

Reference: patent US20080095834A1, “Mitochondriotropic Phospholipid Vesicles” (priority 2005, published 2008)
